Measured values reported in patent US8198352B2, “High purity monoalkyltin compounds and uses thereof” (Arkema France, priority 2008, dated 2012).

How the values were obtained:
[1] = dihydropyridine-based compound alone, well known; cited from earlier work
[2] = system: rat, Wistar outbred; test: Example AA: 14-day oral (diet) dose-range toxicity study; assay type: in vivo; settings: via the diet, 14 consecutive days
From the text: The aim of this study is to select appropriate dose-levels for the main study.
Materials and Methods: • Groups: one control group and four test groups (4 males and 4 female per group) administered with different dose levels of the test substance; • Housing: 2 rats/sex/cage, macrolon cages; • Species: rat, Wistar outbred, Charles River Wiga GmbH, 9-10 weeks of age at start; • Carrier: Commercial rodent diet (Rat & Mouse No. 3 Breeding diet, RM3), ad libitum; • Treatment: Administration via the diet during 14 consecutive days; one batch of test diets is prepared shortly before initiation of treatment and stored in a freezer/refrigerator; the feed in the animal feeders is refreshed twice per week; • Clinical observations: general observations (all rats): daily; morbidity is checked again in the afternoon; • Body weight: at least once pretest, twice per week from the start of treatment (for the last time, on the day of scheduled necropsy); • Food consumption: twice weekly per cage (2 rats/cage) from the start of treatment; • Water consumption: visual inspection of the drinking bottles; • Pathology: • macroscopic examination (all rats); • weighing the following organs of all the surviving rats: kidneys, liver, spleen, testes, thymus; • preservation: the weighed organs are preserved in formalin and discarded when the results of the subsequent 90-day study indicate non need for microscopy on tissues from the 14-day study;
(§1) On each day of analysis, calibration solutions are prepared by spiking rodent diet with a stock solution of the organotin compound followed by derivatisation with sodium tetraethyl borate, in order to derivatise the octyltin compounds to the corresponding octyltin-ethyl compounds, with simultaneous extraction of the derivatised compounds into hexane.
(§2) The concentration of the test substance in diet is then determined by GC-MS of the hexane extracts.

[3] = system: wistar rats; test: Example AB: reproduction/developmental toxicity screening test (OECD 421); assay type: in vivo, rat
From the text: The objective of this study is to assess whether octyltin tris (2-ethylexylmercaptoacetate) causes adverse effects on reproduction and/or development of wistar rats. This study was preceded by a dose-range finding study (see Example AA).
Materials and Methods: • Groups: one control group and three test groups (12 males and 12 female per group) administered with different dose levels of the test substance; • Housing: Pre-mating (PM): 4 rats/sex/cage, macrolon cages; • Mating (M): 1 male and 1 female per cage; • Gestation (G) and lactation: 1 rat/sex/cage, macrolon cages; • Species: rat, Wistar outbred, Charles River Wiga GmbH, 9-10 weeks of age at start; • Carrier: Commercial rodent diet (Rat & Mouse No. 3 Breeding diet, RM3), ad libitum; • Treatment: Administration via the diet during 14 consecutive days premating; during 14 consecutive days mating, gestation and lactation up to 4 days (males are given the test substance in the diet until sacrifice at the end of the mating period); • one or two batches of test diets are prepared shortly before initiation of treatment and stored in a freezer/refrigerator; the feed in the animal feeders is refreshed once per week; • Clinical observations: general clinical observations (all rats): daily; morbidity is checked again in the afternoon; • Body weight: at least once pretest, males and females, premating and mating weekly; • Food consumption: males and females, premating and mating weekly; for female during gestation: GD 0, 7, 14 and 21 during lactation; PN 1 and 4; • Pups: sex, body, weight, number of live and dead pups, clinical signs PN 1 and 4; • Water consumption: visual inspection of the drinking bottles; • Pathology: • macroscopic examination (all rats); • count: number of implantations (uterus) and corpora lutea (ovaria); • weighing the following organs of all the surviving rats: testes (males), epididymes […], thymus; • preservation all animals): testes, epididymes, seminal vesicles, prostate, ovaries, uterus, thymus and organs and tissues showing macroscopic abnormalities; the organs are preserved in formalin and discarded when the results of the OECD 421 study indicate non need for microscopy; • Histopathology: preserved tissues for control and high level only […].
as §1, §2

[4] = rat, 200, 500 and 1250 mg/kg diet

Compound: CCCCCCCCCCCCOC(=O)C1=C(C)NC(C)=C(C(=O)OCCCCCCCCCCCC)C1 [DHP, dihydro-1,4-dimethyl-2,6-dicarbododecyloxy-3,5-pyridine]
- result in dynamic thermal stability (colour) test [1]: poor results

Compound: CCCCCCC[CH2][Sn]([S]CC(=O)OCC(CC)CCCC)([S]CC(=O)OCC(CC)CCCC)[S]CC(=O)OCC(CC)CCCC (centres unmarked) [octyltin tris (2-ethylexylmercaptoacetate)]
- abnormalities at necropsy [2]: no abnormalities were observed at necropsy
- change in body weight and food consumption [2]: no change in body weight and food consumption
- clinical abnormalities [2]: no clinical abnormalities were observed
- effects on organ weights [2]: no effects were observed on organ weights
- NOAEL expressed per body weight ([3]; female animals): ~96 mg/kg body weight/day
- NOAEL expressed per body weight ([3]; male animals): approximately 72 mg/kg body weight/day
- effects on pre- and post-natal development [3, 4]: No effects were observed
- effects on reproduction organs [3, 4]: No effects were observed
- tolerability of oral administration [3, 4]: well tolerated at all dose-levels
- no averse effect level (NOAEL) for parental toxicity, fertility and development ([3]; rat, oral via the diet): 1250 mg/kg diet
